These results are taken from patent US12018059B2, “Human amylin analog polypeptides and methods of use” (Intarcia Therapeutics, Inc., priority 2018, dated 2024).

Positions of bridges follow the written chain, without caps; N, C: chain ends. Residues, ends and D or L forms follow the SMILES beside them.

A short description of the first data set: Pharmacokinetics, 3-hour intravenous infusion of linear (non-acylated) polypeptides. Also noted: species or system Sprague-Dawley rats. To be noted: rat, in vivo, 0.1 mg/kg; linear polypeptides; 3-hour intravenous infusion, 0.100 mg/kg, male Sprague-Dawley rats; read-out: CL. As for the experimental part:
Peptides were dissolved in sterile saline and administered as a 3-hour intravenous infusion to non-fasted male Sprague-Dawley rats (n=3 per group) via femoral vein cannula at a final dose of 0.100 mg/kg. […] Blood samples (approximately 250 μL) were collected for pharmacokinetic analysis via a jugular vein cannula at 0.25, 0.5, 1, 2, 3, 3.17, 3.33, 3.5, 4, 4.5, 5, and 6 hr post-start of infusion (long method) or at 1, 1.5, 2, 2.5, and 3 hr post-start of infusion (steady-state screening method). All samples were collected into microtainer tubes containing K2EDTA as anticoagulant and 25 μL of a protease inhibitor cocktail. Plasma was prepared by centrifugation and stored at −80° C. until analysis. The results of this analysis are shown in Table 9 and few exemplars in FIGS. 3a-3b.
A 60 μL aliquot of each plasma sample was placed into to a 96-well plate. To each well was added 6 μL of 0.5% Tween-20. Plates were then vortexed mixed for 10 minutes at 1200 rpm before 180 μL of 0.1% TFA in 2:1 ethanol:acetonitrile containing an appropriate internal standard was added to each well. Plates were vortex mixed for 5 min at 1300 rpm, and then centrifuged for 10 min at 2844×g. Supernatants (180 μL) were placed into a clean 96-well plate and evaporated under a nitrogen stream at 45° C. Residues were reconstituted in 80 μL of 20% acetonitrile (aq) containing 0.1% formic acid.
A […] aliquot of each plasma sample was diluted with […] of 10 mM ammonium acetate (pH 6.8) containing an appropriate internal standard and loaded onto an Oasis WCX microElution plate (Waters Corporation, Milford, MA) that had been pre-conditioned with […] of methanol and […] of deionized water. Samples were washed with […] of 5% ammonium hydroxide (aq) followed by […] of 20% acetonitrile in water. The analyte was eluted with […] of 5% formic acid in 75:25 acetonitrile:water. The eluent was dried under a nitrogen stream. Residues were reconstituted in 80 μL of 20% acetonitrile (aq) containing 0.1% formic acid.
All calibration standards were prepared in control rat plasma containing K2EDTA and protease inhibitor cocktail.
Samples and standards were analyzed by TurbolonSpray™ UPLC-MS/MS using a system consisting of a CTC HTS PAL auto-injector (Leap, Carrboro, NC), an Agilent Infinity 1290 system with column oven (Palo Alto, CA), a Valco switching valve (Houston, TX), and either an AB Sciex API 5600 TripleTOF™ or Sciex API 4000QTrap mass spectrometer (Framingham, MA). Samples were injected onto a 2.1×50 mm reverse phase C18 analytical column, typically a Waters CORTECS UPLC C18+, 1.6 μm (Waters Corporation, Milford, MA) or similar. […] Initial conditions consisted of 90% A and 10% B. The organic component was increased to 95% B over a period of 3-4 minutes, depending on the peptide. Typical flow rates were 600 μL/min. The column temperature was held constant at 40 or 50° C. Peptides were quantified by monitoring one or more product ions produced from a multiply charged parent ion.
In the case of `CC[C@H](C)[C@H](NC(=O)[C@@H]1CCCN1C(=O)CNC(=O)[C@H](Cc1ccccc1)NC(=O)[C@H](CC(N)=O)NC(=O)[C@H](CC(N)=O)NC(=O)[C@H](CO)NC(=O)[C@H](CO)NC(=O)[C@H](Cc1c[nH]cn1)NC(=O)[C@@H](NC(=O)[C@H](CC(C)C)NC(=O)[C@H](CCC(=O)O)NC(=O)[C@H](CC(N)=O)NC(=O)[C@H](C)NC(=O)[C@H](CC(C)C)NC(=O)[C@H](CCCNC(=N)N)NC(=O)[C@H](CCC(N)=O)NC(=O)[C@@H](NC(=O)[C@H](C)NC(=O)[C@@H]1CSSC[C@H](NC(=O)[C@@H](N)CO)C(=O)N[C@@H](CC(N)=O)C(=O)N[C@@H]([C@@H](C)O)C(=O)N[C@@H](CO)C(=O)N[C@@H]([C@@H](C)O)C(=O)N1)[C@@H](C)O)C(C)C)C(=O)N[C@@H](CC(C)C)C(=O)N1CCC[C@H]1C(=O)N1CCC[C@H]1C(=O)N[C@H](C(=O)N[C@@H](CC(N)=O)C(=O)N[C@H](C(=O)NCC(=O)N[C@@H](CO)C(=O)N[C@@H](CC(N)=O)C(=O)N[C@H](C(=O)N[C@@H](Cc1ccc(O)cc1)C(N)=O)[C@@H](C)O)C(C)C)[C@@H](C)O` [Compound A44] (H-SCNTSTCATQRLANELVHSSNNFGPILPPTNVGSNTY-NH2; disulfide 2-7), the clearance turned out to be 14.2 mL/min/kg.

For the compound `CC[C@H](C)[C@H](NC(=O)[C@@H]1CCCN1C(=O)CNC(=O)[C@H](Cc1ccccc1)NC(=O)[C@H](CC(N)=O)NC(=O)[C@H](CC(N)=O)NC(=O)[C@H](CO)NC(=O)[C@H](CO)NC(=O)[C@H](CCCNC(=N)N)NC(=O)[C@H](Cc1c[nH]cn1)NC(=O)[C@H](CC(C)C)NC(=O)[C@H](CCC(=O)O)NC(=O)[C@H](CC(N)=O)NC(=O)[C@H](C)NC(=O)[C@H](CC(C)C)NC(=O)[C@H](CCCNC(=N)N)NC(=O)[C@H](CCC(N)=O)NC(=O)[C@@H](NC(=O)[C@H](C)NC(=O)[C@@H]1CSSC[C@H](NC(=O)[C@@H](N)CO)C(=O)N[C@@H](CC(N)=O)C(=O)N[C@@H]([C@@H](C)O)C(=O)N[C@@H](CO)C(=O)N[C@@H]([C@@H](C)O)C(=O)N1)[C@@H](C)O)C(=O)N[C@@H](CC(C)C)C(=O)N1CCC[C@H]1C(=O)N1CCC[C@H]1C(=O)N[C@H](C(=O)N[C@@H](CC(N)=O)C(=O)N[C@H](C(=O)NCC(=O)N[C@@H](CO)C(=O)N[C@@H](CC(N)=O)C(=O)N[C@H](C(=O)N[C@@H](Cc1ccc(O)cc1)C(N)=O)[C@@H](C)O)C(C)C)[C@@H](C)O` [Compound A45] (H-SCNTSTCATQRLANELHRSSNNFGPILPPTNVGSNTY-NH2; disulfide 2-7), the clearance turned out to be 21.1 mL/min/kg.

Consider `CC[C@H](C)[C@H](NC(=O)[C@@H]1CCCN1C(=O)CNC(=O)[C@H](Cc1ccccc1)NC(=O)[C@H](CC(N)=O)NC(=O)[C@H](CC(N)=O)NC(=O)[C@H](CO)NC(=O)[C@H](CO)NC(=O)[C@H](CCCNC(=N)N)NC(=O)[C@H](Cc1c[nH]cn1)NC(=O)[C@H](CC(C)C)NC(=O)[C@H](Cc1ccc(O)cc1)NC(=O)[C@H](CC(N)=O)NC(=O)[C@H](C)NC(=O)[C@H](CC(C)C)NC(=O)[C@H](CCCNC(=N)N)NC(=O)[C@H](CCC(N)=O)NC(=O)[C@@H](NC(=O)[C@H](C)NC(=O)[C@@H]1CSSC[C@H](NC(=O)[C@@H](N)CO)C(=O)N[C@@H](CC(N)=O)C(=O)N[C@@H]([C@@H](C)O)C(=O)N[C@@H](C)C(=O)N[C@@H](CO)C(=O)N1)[C@@H](C)O)C(=O)N[C@@H](CC(C)C)C(=O)N1CCC[C@H]1C(=O)N1CCC[C@H]1C(=O)N[C@H](C(=O)N[C@@H](CC(N)=O)C(=O)N[C@H](C(=O)NCC(=O)N[C@@H](CO)C(=O)N[C@@H](CC(N)=O)C(=O)N[C@H](C(=O)N[C@@H](Cc1ccc(O)cc1)C(N)=O)[C@@H](C)O)C(C)C)[C@@H](C)O` [Compound A61] (H-SCNTASCATQRLANYLHRSSNNFGPILPPTNVGSNTY-NH2; disulfide 2-7), for which the clearance was 22.8 mL/min/kg.

The data set is the same for the next values; noted with them: rat, in vivo, iv, 0.1 mg/kg.
The compound `CC[C@H](C)[C@H](NC(=O)[C@@H]1CCCN1C(=O)CNC(=O)[C@H](Cc1ccccc1)NC(=O)[C@H](CC(N)=O)NC(=O)[C@H](CC(N)=O)NC(=O)[C@H](CO)NC(=O)[C@H](CO)NC(=O)[C@H](CCCCN)NC(=O)[C@H](Cc1c[nH]cn1)NC(=O)[C@H](CC(C)C)NC(=O)[C@H](CCC(=O)O)NC(=O)[C@H](CC(N)=O)NC(=O)[C@H](C)NC(=O)[C@H](CC(C)C)NC(=O)[C@H](CCCNC(=N)N)NC(=O)[C@H](CCC(N)=O)NC(=O)[C@@H](NC(=O)[C@H](C)NC(=O)[C@@H]1CSSC[C@H](NC(=O)[C@@H](N)CO)C(=O)N[C@@H](CC(N)=O)C(=O)N[C@@H]([C@@H](C)O)C(=O)N[C@@H](CO)C(=O)N[C@@H]([C@@H](C)O)C(=O)N1)[C@@H](C)O)C(=O)N[C@@H](CC(C)C)C(=O)N1CCC[C@H]1C(=O)N1CCC[C@H]1C(=O)N[C@H](C(=O)N[C@@H](CCCCN)C(=O)N[C@H](C(=O)NCC(=O)N[C@@H](CO)C(=O)N[C@@H](CCC(=O)O)C(=O)N[C@H](C(=O)N[C@@H](Cc1ccc(O)cc1)C(N)=O)[C@@H](C)O)C(C)C)[C@@H](C)O` [Compound A57] (H-SCNTSTCATQRLANELHKSSNNFGPILPPTKVGSETY-NH2; disulfide 2-7) gave a clearance of 10.7 mL/min/kg.

In the case of `CC[C@H](C)[C@H](NC(=O)[C@@H]1CCCN1C(=O)CNC(=O)[C@H](Cc1ccccc1)NC(=O)[C@H](CC(N)=O)NC(=O)[C@H](CC(N)=O)NC(=O)[C@H](CO)NC(=O)[C@H](CO)NC(=O)[C@H](CCCCN)NC(=O)[C@H](CCC(N)=O)NC(=O)[C@H](CC(C)C)NC(=O)[C@H](Cc1ccccc1)NC(=O)[C@H](CC(N)=O)NC(=O)[C@H](C)NC(=O)[C@H](CC(C)C)NC(=O)[C@H](CCCNC(=N)N)NC(=O)[C@H](CO)NC(=O)[C@@H](NC(=O)[C@H](C)NC(=O)[C@@H]1CSSC[C@H](NC(=O)[C@@H](N)CO)C(=O)N[C@@H](CC(N)=O)C(=O)N[C@@H]([C@@H](C)O)C(=O)N[C@@H](CO)C(=O)N[C@@H]([C@@H](C)O)C(=O)N1)[C@@H](C)O)C(=O)N[C@@H](CC(C)C)C(=O)N1CCC[C@H]1C(=O)N1CCC[C@H]1C(=O)N[C@H](C(=O)N[C@@H](CCCCN)C(=O)N[C@H](C(=O)NCC(=O)N[C@@H](CO)C(=O)N[C@@H](CCC(=O)O)C(=O)N[C@H](C(=O)N[C@@H](Cc1ccc(O)cc1)C(N)=O)[C@@H](C)O)C(C)C)[C@@H](C)O` [Compound A62] (H-SCNTSTCATSRLANFLQKSSNNFGPILPPTKVGSETY-NH2; disulfide 2-7), the clearance was 18.8 mL/min/kg.

`CC[C@H](C)[C@H](NC(=O)[C@@H]1CCCN1C(=O)CNC(=O)[C@H](Cc1ccccc1)NC(=O)[C@H](CC(N)=O)NC(=O)[C@H](CC(N)=O)NC(=O)[C@H](CO)NC(=O)[C@H](CO)NC(=O)[C@H](Cc1c[nH]cn1)NC(=O)[C@@H](NC(=O)[C@H](CC(C)C)NC(=O)[C@H](Cc1ccc(O)cc1)NC(=O)[C@H](CC(N)=O)NC(=O)[C@H](C)NC(=O)[C@H](CC(C)C)NC(=O)[C@H](CCCNC(=N)N)NC(=O)[C@H](CO)NC(=O)[C@@H](NC(=O)[C@H](C)NC(=O)[C@@H]1CSSC[C@H](NC(=O)[C@@H](N)CO)C(=O)N[C@@H](CC(N)=O)C(=O)N[C@@H]([C@@H](C)O)C(=O)N[C@@H](CO)C(=O)N[C@@H]([C@@H](C)O)C(=O)N1)[C@@H](C)O)C(C)C)C(=O)N[C@@H](CC(C)C)C(=O)N1CCC[C@H]1C(=O)N1CCC[C@H]1C(=O)N[C@H](C(=O)N[C@@H](CCCCN)C(=O)N[C@H](C(=O)NCC(=O)N[C@@H](CO)C(=O)N[C@@H](CCC(=O)O)C(=O)N[C@H](C(=O)N[C@@H](Cc1ccc(O)cc1)C(N)=O)[C@@H](C)O)C(C)C)[C@@H](C)O` [Compound A111] (H-SCNTSTCATSRLANYLVHSSNNFGPILPPTKVGSETY-NH2; disulfide 2-7) had a clearance of 20 mL/min/kg.
